# ChEMBL document CHEMBL1926625, “Identification of benzoxazin-3-one derivatives as novel, potent, and selective nonsteroidal mineralocorticoid receptor antagonists” (J Med Chem, 2011)
# Legend:
# [1] = Clearance in Sprague-Dawley rat at 3 mg/kg, iv and 10 mg/kg, po; type: ADME, organism-based; settings: in vivo
# [2] = molecular target: T1, Mineralocorticoid receptor (Homo sapiens, UniProt P08235)
# T1 sequence (P08235 whole entry): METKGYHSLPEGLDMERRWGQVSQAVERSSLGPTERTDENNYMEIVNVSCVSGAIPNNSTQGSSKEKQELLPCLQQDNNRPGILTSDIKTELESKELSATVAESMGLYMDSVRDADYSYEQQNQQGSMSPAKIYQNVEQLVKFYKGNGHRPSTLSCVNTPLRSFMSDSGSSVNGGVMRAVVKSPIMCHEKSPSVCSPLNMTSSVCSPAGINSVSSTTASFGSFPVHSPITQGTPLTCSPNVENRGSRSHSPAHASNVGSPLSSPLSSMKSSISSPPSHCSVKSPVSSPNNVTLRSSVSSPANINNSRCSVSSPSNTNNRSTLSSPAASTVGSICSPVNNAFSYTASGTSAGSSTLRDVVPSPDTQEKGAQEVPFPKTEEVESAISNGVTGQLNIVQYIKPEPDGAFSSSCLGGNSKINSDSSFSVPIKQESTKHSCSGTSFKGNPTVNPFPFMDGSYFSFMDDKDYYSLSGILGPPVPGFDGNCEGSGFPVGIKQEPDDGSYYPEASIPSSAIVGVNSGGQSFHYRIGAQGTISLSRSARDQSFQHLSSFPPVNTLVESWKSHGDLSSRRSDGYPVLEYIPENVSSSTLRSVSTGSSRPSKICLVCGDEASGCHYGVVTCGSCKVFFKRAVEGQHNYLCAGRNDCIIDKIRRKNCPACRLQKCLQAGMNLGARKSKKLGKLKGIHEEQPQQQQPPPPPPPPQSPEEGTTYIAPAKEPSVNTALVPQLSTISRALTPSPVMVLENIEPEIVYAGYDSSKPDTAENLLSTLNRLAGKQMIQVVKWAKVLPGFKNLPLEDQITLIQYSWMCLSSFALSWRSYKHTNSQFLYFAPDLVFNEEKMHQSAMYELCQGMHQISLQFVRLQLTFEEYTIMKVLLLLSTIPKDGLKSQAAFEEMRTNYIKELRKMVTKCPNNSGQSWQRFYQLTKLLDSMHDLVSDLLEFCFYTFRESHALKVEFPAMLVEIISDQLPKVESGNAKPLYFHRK
# Description: Antagonist activity at human MR transfected in human COS1 cells after 1 day by luciferase reporter gene assay
# [3] = AUC (0 to 24 hrs) in Sprague-Dawley rat at 10 mg/kg, po; type: ADME, organism-based; design: time < 24 hr, dose 10 mg/kg, route oral; settings: plasma
# [4] = molecular target: T2, Glucocorticoid receptor (Homo sapiens, UniProt P04150); assay: Displacement of [3H]dexomethasone from GR
# T2 sequence (P04150 whole entry): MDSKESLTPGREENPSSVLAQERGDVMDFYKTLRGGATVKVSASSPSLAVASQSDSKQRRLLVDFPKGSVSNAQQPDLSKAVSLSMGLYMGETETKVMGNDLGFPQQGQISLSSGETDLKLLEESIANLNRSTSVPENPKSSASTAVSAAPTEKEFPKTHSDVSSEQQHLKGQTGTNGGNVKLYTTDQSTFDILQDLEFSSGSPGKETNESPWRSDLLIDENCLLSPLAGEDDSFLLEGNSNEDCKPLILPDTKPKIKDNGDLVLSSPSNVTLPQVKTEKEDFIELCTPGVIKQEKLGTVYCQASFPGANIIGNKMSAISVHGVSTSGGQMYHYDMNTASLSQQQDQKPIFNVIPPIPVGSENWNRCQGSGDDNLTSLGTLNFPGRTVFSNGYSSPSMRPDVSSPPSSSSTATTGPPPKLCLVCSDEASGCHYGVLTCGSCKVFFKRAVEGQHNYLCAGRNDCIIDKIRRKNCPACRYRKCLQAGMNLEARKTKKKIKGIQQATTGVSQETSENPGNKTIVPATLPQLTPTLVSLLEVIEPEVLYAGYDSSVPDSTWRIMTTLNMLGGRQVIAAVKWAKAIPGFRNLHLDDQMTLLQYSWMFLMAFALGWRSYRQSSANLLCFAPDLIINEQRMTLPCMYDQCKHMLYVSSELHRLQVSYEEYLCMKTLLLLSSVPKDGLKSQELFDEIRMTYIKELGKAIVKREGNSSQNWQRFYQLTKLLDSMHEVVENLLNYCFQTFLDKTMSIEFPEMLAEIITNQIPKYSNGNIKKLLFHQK
# [5] = molecular target: T1, Mineralocorticoid receptor; assay: biochemical
# Description: Displacement of [3H]aldosterone from cytosolic human MR expressed in HEK293 cells after 16 hrs by scintillation counting
# [6] = Volume of distribution at steady state in Sprague-Dawley rat at 3 mg/kg, iv and 10 mg/kg, po; type: ADME, organism-based; settings: in vivo, read-out: Vdss
# [7] = molecular target: T3, Progesterone receptor (Homo sapiens, UniProt P06401); assay: Displacement of [3H]progesterone from PR
# T3 sequence (P06401 whole entry): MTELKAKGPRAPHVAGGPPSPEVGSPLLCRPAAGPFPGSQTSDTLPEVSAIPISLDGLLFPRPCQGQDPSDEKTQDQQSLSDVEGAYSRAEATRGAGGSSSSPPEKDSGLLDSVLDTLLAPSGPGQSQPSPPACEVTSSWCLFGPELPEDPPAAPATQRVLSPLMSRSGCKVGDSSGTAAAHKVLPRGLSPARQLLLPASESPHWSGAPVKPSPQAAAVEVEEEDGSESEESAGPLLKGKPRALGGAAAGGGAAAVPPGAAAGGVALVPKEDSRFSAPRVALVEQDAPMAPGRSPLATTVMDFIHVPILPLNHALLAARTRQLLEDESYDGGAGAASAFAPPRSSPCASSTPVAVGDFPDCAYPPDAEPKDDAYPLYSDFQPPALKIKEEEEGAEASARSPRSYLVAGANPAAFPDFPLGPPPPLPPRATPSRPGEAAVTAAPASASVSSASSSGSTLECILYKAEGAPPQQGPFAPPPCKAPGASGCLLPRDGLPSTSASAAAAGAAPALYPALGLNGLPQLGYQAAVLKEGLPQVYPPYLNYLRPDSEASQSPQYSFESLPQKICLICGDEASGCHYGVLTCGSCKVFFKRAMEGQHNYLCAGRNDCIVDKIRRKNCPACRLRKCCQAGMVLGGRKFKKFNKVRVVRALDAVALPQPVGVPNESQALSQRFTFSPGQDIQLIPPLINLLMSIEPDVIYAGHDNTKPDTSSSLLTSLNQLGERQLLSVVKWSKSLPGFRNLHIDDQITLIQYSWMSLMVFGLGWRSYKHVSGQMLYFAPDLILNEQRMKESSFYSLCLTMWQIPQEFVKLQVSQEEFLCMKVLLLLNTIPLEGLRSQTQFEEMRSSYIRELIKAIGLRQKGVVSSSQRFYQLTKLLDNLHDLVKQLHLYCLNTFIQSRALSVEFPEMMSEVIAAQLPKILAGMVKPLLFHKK
# [8] = Bioavailability in Sprague-Dawley rat at 3 mg/kg, iv and 10 mg/kg, po; type: ADME, organism-based; settings: in vivo
# [9] = Mean residence time in Sprague-Dawley rat at 10 mg/kg, po; type: ADME, organism-based; design: dose 10 mg/kg, route oral; settings: in vivo
smiles,measurement,setting,value
Cc1cc(F)ccc1-n1nc(C(F)(F)F)cc1-c1ccc2c(c1)NC(=O)CO2,clearance,[1],22.1 mL/min/kg
same,IC50,[2],43 nM
same,AUC(0-t) at 24 h,[3],3830 ng·h/mL
same,IC50,[4],1800 nM
same,IC50,[5],41 nM
same,Vd,[6],4.63 L/kg
same,IC50,[7],1900 nM
same,bioavailability,[8],50.7%
same,MRT,[9],4.39 h
